Source: patent publication US11491178B2, “Chitosan covalently linked with small molecule integrin antagonist for targeted delivery” (Hoffmann-La Roche Inc., priority 2012, dated 2022)
Like-named read-outs stand apart in the source and are kept apart here.

Target: T1, VLA-4 (α4β1) (Homo sapiens, UniProt P05556+P13612)
T1 construct: Jurkat cells express high levels of VLA-4 on their membrane surface; host or cells: Jurkat Clone E6-1
Assay: VLA-4 (α4β1) binding assay: Jurkat cell adhesion to VCAM-1-coated plates
Type: cell-based
Method: Chitosan covalently linked with small molecule α4β1 antagonists having the general structure of formula IA below were assessed for their α4β1 (VLA-4) binding affinity:
The following adhesion assay has been reported previously and used in this invention with minor modification. See U.S. Pat. Nos. 6,229,011 and 6,380,387 both of which are incorporated herein by reference in their entirety. […] Each assay was conducted in a 96-well plate with VCAM-1 used as the counter ligand for the cells (i.e., VCAM-1 was bound to the surface of the wells).
More specifically, 96-well high-binding F96 Maxisorp immuno microtiter plates (Nunc) were coated overnight with 25 ng/well of VCAM-1. […]
To assess VLA-4 inhibition by the VLA-4 targeted chitosans (from the examples), Jurkat cells (expressing high levels of VLA-4) were added to the VCAM-1-coated plates to a final concentration of 2×10^5 cells/well in 96-well plates and allowed to incubate with the test chitosans (from the examples) for 45 minutes at 37° C. After removing unbound cells by gently washing the wells with PBS, the fluorescence signal from the bound cells was read on a Tecan Safire2 microplate reader at 450 nm. Points were plotted and the IC50s of each derivatized chitosan polymer were determined by regression analysis using the linear portion of the concentration-response curve.

T1 sequence (P13612 34-1032): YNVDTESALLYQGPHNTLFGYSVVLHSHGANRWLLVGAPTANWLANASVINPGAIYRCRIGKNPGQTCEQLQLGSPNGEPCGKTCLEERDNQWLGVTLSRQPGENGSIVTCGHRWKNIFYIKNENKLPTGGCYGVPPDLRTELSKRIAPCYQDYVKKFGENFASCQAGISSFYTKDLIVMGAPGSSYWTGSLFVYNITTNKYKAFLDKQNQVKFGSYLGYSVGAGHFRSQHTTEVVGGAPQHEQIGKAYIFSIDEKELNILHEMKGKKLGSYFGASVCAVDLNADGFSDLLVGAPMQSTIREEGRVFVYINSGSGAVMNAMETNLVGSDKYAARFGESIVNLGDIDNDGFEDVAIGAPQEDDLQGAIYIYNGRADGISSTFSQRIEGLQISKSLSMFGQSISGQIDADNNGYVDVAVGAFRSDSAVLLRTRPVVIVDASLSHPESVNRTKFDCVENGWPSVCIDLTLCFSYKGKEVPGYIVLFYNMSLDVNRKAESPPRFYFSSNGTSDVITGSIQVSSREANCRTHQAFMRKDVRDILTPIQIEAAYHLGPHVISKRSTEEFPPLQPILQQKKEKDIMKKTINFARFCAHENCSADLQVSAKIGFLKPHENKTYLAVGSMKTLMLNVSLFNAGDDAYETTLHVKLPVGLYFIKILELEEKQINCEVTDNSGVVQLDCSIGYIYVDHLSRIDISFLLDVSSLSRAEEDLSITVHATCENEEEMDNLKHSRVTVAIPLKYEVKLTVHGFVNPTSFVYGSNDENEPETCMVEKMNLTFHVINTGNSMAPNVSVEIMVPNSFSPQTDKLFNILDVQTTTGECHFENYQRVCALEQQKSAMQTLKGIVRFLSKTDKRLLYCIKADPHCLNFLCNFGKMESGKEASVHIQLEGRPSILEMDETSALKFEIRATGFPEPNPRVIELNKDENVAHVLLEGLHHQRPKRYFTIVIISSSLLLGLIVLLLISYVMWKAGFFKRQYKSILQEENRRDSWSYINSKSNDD
T1 sequence (P05556 21-798): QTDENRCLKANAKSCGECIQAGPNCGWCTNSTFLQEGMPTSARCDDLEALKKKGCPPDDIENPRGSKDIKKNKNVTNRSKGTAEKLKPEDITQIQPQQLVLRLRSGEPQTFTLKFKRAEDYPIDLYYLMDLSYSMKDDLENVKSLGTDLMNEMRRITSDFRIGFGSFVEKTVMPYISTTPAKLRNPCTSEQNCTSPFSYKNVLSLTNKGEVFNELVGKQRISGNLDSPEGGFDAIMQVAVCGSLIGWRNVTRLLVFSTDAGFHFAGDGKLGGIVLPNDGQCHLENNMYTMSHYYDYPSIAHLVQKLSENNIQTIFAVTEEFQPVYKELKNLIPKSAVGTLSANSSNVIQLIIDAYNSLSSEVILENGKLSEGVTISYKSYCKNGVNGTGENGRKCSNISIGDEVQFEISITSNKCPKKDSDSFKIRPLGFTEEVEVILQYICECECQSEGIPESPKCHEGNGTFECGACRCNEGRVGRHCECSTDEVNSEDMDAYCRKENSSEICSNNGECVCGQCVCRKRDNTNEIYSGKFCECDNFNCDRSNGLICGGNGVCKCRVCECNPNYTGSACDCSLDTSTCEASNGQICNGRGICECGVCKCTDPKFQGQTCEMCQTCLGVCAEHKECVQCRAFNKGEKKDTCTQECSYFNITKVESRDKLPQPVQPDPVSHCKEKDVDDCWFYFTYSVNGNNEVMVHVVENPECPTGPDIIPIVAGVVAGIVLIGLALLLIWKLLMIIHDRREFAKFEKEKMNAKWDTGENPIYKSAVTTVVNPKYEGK

IC50 (Jurkat cells on VCAM-1-coated plates, Mn2+ activated, 45 minutes at 37° C., Table 1, read-out: Binding IC50): 4 nM
IC50 (control compound in the Jurkat/VCAM-1 adhesion assay, read-out: IC50): ~12 nM
SMILES: Cc1cccc(Cl)c1C(=O)NC(Cc1ccc(NC(=O)c2c(Cl)cccc2Cl)cc1)C(=O)O (centres unmarked) [Control (27), reference compound]
